# US9636311B2, “N,N′-di-1 naphthylguanidine HCl (NAGH) and N,N′-di-p-nitrophenylguanidine HCl (NAD) treatment for stroke at delayed timepoints” (University of South Florida, priority 2012, dated 2017)
# Read-outs that look alike come from different tables or passages of the source.
# Tests used:
# rats following MCAO [1] = experiment: Spontaneous activity (automated activity monitor) after MCAO; format: in vivo, rat; settings: 1 month post MCAO
# Description: (§1) MCAO surgeries were performed as described elsewhere (Vendrame M, Cassady C J, Newcomb J, Butler T, Pennypacker K R, Zigova T, et al. Stroke. 2004; 35:2390-2395). Briefly, rats were anesthetized with isoflurane, and the right common carotid and external carotid arteries were exposed using blunt dissection techniques. The vagus nerve was separated from common carotid artery and the external carotid artery was ligated proximally, and transected near the bifurcation. An embolus 40 mm in length (4.0 siliconized monofilament) was inserted into the external carotid artery and fed distally into the origin of the middle cerebral artery (˜25 mm from insertion) through the internal carotid artery. Blood samples were taken and analyzed using an i-STAT handheld analyzer for hemoglobin, hematocrit, ionized calcium, glucose, sodium, potassium, pH, pCO2, HCO3, TCO2, base excess, pO2, and O2. Cerebral blood flow was recorded using a Laser Doppler Monitor (Moor Instruments) to verify occlusion. Afterwards, the embolus was ligated permanently into the vessel and the neck incision was closed. Animals were treated with Ketoprofen IM (10 mg/kg) for three days post-surgery.
# For the NAGH studies, vehicle or NAGH were prepared fresh each day. Daily subcutaneous injections (s.c) were administered beginning about 24 hours after MCAO and continued daily to about 72 hours post-surgery (FIG. 1). Animals received a total of 3 injections. A total of 84 animals were randomly assigned into 2 groups: Rats treated with vehicle (40% DMSO in sterile saline, n=42), or rats treated with 0.86 mg/kg NAGH (n=42).
# For NAD testing, a total of 32 animals were randomly assigned into 2 groups: Vehicle (n=16), and rat treated with 2.8 mg/kg NAD (n=16). Vehicle consisted of 40% DMSO in sterile saline.
# Spontaneous Activity was measured during both the day (1 hr) and night (12 hrs) using an automated activity monitor (VersaMax, Accuscan Instruments, Inc). Spontaneous Activity was measured prior to stroke to establish the normal baseline for each individual animal as well as 1 month after the MCAO. The animals were placed in a Plexiglas box and allowed to roam freely. There is a three dimensional infrared array in this box and when a beam is broken, activity is recorded. A total of sixteen parameters were measured including: Vertical movement, Horizontal movement, and Stereotypic activity were selected for analysis: Horizontal activity (HA), Total distance travelled (TD), Number of movements (MVN), Movement time (MVT), Vertical activity (VA), Number of vertical movements (VMN), vertical time (VT), Stereotype counts (SC), Number of Stereotypy (SN), Stereotypy time (ST), Clockwise rotation (CR), counterclockwise rotation (CCR), Margin distance (MD), Marginal time (MT), Center distance (CD), and Center time (CT). The data are presented as mean+SEM of percent of baseline behavior.
# microglial cells = experiment: Inhibition of microglial migration evoked by ATP; format: cell-based
# Description: (§2) FIG. 8 is a series of images confirming NAGH acts as a sigma receptor agonist. A) Concentration-response relationship for NAGH (closed circles) and DTG (open circles) inhibition of microglial migration evoked by 100 μM ATP. […] Points represent mean (±SEM) and for all points, n>9. B) Bar graph of the mean (±SEM) number of microglial cells migrating in response to 100 μM ATP when ATP was added alone (DMEM) or in the presence of 100 μM NAGH. Microglia were further exposed to no σ antagonist (Control), or the σ-1 antagonist, BD-1047 (10 μM, BD-1047), or the σ-2 antagonist, rimcazole (10 μM, Rimcazole). Asterisks denote significant difference between DMEM and NAGH within Control, BD-1047 and Rimcazole groups, respectively. Pound symbols indicate significant difference between Control, BD-1047 and Rimcazole within DMEM and NAGH groups, respectively. P<0.05 and n=24 for all groups.
# as §2, with “8A illustrates the concentration-response” for “8 is a series of images confirming NAGH acts as a sigma receptor agonist. A) Concentration-response”, “FIG. 8B depicts a bar” for “B) Bar”
# rats following MCAO [2] = experiment: Elevated body swing test after MCAO; format: in vivo, rat; settings: 30 days after MCAO; p=0.009
# Description: as §1, with “Afterwards, the embolus was ligated permanently into the vessel and the neck incision was closed. Animals were treated with Ketoprofen IM (10 mg/kg) for three days post-surgery.” left out
# The animal was placed in a Plexiglas box (40×40×35.5 cm), allowed to habituate for 2 minutes and attain a neutral position, defined as having all four paws on the ground. […] A swing was recorded whenever the animal moved its head out of the vertical axis to the right or left over […]. Swings were recorded using a hand counter. […]
# [3] = migration evoked by 100 μM ATP, two-component Langmuir-Hill fit
smiles,measurement,setting,value
"Cl.N=C(Nc1cccc2ccccc12)Nc1cccc2ccccc12 [NAGH, N,N′-di-1-Naphthylguanidine hydrochloride]",Daytime horizontal activities vs DMSO,rats following MCAO [1]; 1-hr test,no significant differences
same,Daytime vertical time (VT) vs DMSO,"rats following MCAO [1]; 1-hr test, p=0.01",significantly less active
same,Daytime vertical activity (VA) vs DMSO,"rats following MCAO [1]; 1-hr test, p=0.03",significantly less active
same,Daytime number of vertical movements (VMN) vs DMSO,"rats following MCAO [1]; 1-hr test, p=0.15",more active than DMSO group
same,"Daytime stereotypy activity (SC, SN, ST) decrease vs DMSO","rats following MCAO [1]; 1-hr test, p>0.05",failed to reach a statistically significant level
same,Nighttime horizontal parameters decrease vs DMSO,rats following MCAO [1]; 12-hr test,did not reach statistical significance
same,"Nighttime stereotypic behavior (SC, SN, ST) vs DMSO",rats following MCAO [1]; 12-hr test,did not show any significant difference
same,Nighttime vertical activity (VA) vs DMSO,"rats following MCAO [1]; 12-hr test, p=0.01",significantly less active
same,Nighttime number of vertical movements (VMN) vs DMSO,"rats following MCAO [1]; 12-hr test, p=0.015",significantly more active
same,Nighttime vertical time (VT) vs DMSO,"rats following MCAO [1]; 12-hr test, p=0.03",significantly less active
same,Microglial migration,"microglial cells; 100 μM ATP, via σ-1 and σ-2 receptors",blocks microglial migration
same,"Emax, high affinity component",microglial cells; [3],0.43
same,"Emax, low affinity component",microglial cells; [3],0.57
same,"Hill coefficient, high affinity component",microglial cells; [3],2.2
same,"Hill coefficient, low affinity component",microglial cells; [3],0.80
same,IC50,"microglial cells; migration evoked by 100 μM ATP, two-component Langmuir-Hill fit, read-out: IC50, high affinity component",0.75 µM
same,IC50,"microglial cells; read-out: IC50, low affinity component",84 µM
same,EBST bias vs DMSO,rats following MCAO [2],significantly less bias
